Experiment [1] has as its target T1, Streptokinase A (Streptococcus pyogenes serotype M1, UniProt P10520).
T1 sequence (P10520 whole entry): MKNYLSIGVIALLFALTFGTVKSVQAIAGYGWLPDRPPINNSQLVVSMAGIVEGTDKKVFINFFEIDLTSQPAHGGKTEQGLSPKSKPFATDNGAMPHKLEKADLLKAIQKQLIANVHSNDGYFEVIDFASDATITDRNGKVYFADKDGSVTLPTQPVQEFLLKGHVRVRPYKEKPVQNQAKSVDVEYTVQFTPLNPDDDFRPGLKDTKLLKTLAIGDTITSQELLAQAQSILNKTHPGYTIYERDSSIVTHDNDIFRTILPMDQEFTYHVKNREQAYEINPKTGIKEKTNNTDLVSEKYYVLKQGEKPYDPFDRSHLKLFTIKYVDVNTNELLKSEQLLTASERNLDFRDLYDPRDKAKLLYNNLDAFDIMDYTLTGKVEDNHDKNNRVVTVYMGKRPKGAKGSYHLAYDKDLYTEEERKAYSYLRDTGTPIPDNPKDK
The experiment can be described thus: viability-normalized secreted streptokinase activity reduction – plasminogen activation absorbance, OD405, dose response (AID 1914).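 Note: secreted streptokinase activity via plasminogen activation per viability signal from cell pellet.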 It counts as functional, Streptococcus pyogenes M1 GAS.

The test system of experiment [2] is Streptococcus. Description: GAS UMAA2166 growth inhibition – luminescence, BacTiterGlo, counter-screen for streptokinase expression inhibitor project, dose response (AID 1915).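 Note: potency for reduction of bacterial viability or growth.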 Format: functional, organism-based. In general terms: A counterscreen serves to expose hits that act by an unwanted route or on another target.
Experiment [3] concerns Streptococcus sp. 'group A'. Description: Streptococcus pyogenes SK(-)GAS viability under kanamycin – luminescence, BacTiterGlo, confirmation, counter-screen for streptokinase expression inhibitor project, dose response (AID 1900). Format: functional, organism-based.
Experiment [4] in a line: viability of PTEN-deleted HCT116 cells – cell-based, HCT116 PTEN knockout, dose response (AID 1047).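 Note: HCT116 colon tumor cells with PTEN knocked out; cells exposed to compound for 60 hours before readout; potency for loss of cell viability measured by luminescence.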 It counts as functional.
In experiment [5] the target is Serine/threonine-protein phosphatase PP1-alpha catalytic subunit (Homo sapiens, UniProt P62136). Description: inhibition of protein phosphatase 1 activity – biochemical, fluorescence, dose response (AID 2403).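 Note: phosphatase turnover of OMFP into fluorescent 3-O-methylfluorescein.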
The nature of experiment [6]: viability of HCT116 lacking mutant beta-catenin – cell-based, human colon tumor, dose response (AID 1045).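 Note: HCT116 colon tumor cells with beta catenin knocked out; cells exposed to compound for 60 hours.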 Format: functional.
The target of experiment [7] is Serine/threonine-protein phosphatase (Homo sapiens, UniProt Q9BPW0). Description: Counterscreen for inhibitors of PP1: fluorescence-based biochemical high throughput dose response assay to identify inhibitors of Protein Phosphatase 5 (PP5). [Related pubchem assays: 2034 (Summary (PP5 inhibitors)), 1987 (PP5 inhibitors in singlate), 2235 (PP1 inhibitors in singlate)].

The target of experiment [8] is T2, Alkaline phosphatase, tissue-nonspecific isozyme (Homo sapiens, UniProt P05186).
T2 sequence (P05186 whole entry): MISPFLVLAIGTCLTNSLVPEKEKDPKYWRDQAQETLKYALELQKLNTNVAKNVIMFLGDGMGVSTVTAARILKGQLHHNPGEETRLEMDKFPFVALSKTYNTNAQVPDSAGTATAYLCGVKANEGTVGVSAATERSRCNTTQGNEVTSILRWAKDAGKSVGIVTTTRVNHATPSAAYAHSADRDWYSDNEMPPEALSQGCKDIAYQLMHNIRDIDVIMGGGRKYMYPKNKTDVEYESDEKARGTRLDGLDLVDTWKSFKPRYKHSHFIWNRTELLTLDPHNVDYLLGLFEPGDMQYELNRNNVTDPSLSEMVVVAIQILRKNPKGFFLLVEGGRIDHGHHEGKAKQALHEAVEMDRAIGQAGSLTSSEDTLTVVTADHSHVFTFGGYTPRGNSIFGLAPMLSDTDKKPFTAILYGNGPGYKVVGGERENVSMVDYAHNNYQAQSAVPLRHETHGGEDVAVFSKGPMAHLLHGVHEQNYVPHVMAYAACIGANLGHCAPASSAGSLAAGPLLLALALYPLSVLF

Experiment [9] relates to Vero. Description: Vero cell viability after compound exposure – synthesized analogs, set II, cytotoxicity control for West Nile virus antiviral project, SAR follow-up (AID 2402). It counts as functional. Conditions: Chlorocebus sabaeus.
The test system of experiment [10] is Vero. The experiment can be described thus: host cell viability loss, Vero E6 – synthesized analogs, cytotoxicity control for West Nile virus antiviral project, SAR follow-up (AID 2244). It counts as functional. To be noted: Chlorocebus sabaeus.
In experiment [11] the test system is Vero. Description: Vero 76 cell viability after compound exposure – Vero 76 cells, synthesized analogs, cytotoxicity control for West Nile virus antiviral project, SAR follow-up (AID 2414). Format: functional. Conditions: Chlorocebus sabaeus.
Experiment [12] in a line: A Cell Based Assay for the Identification of Probe candidate Compounds with Anti- Venezuelan Equine Encephalitis virus. [Related pubchem assays: 2409, 2419, 1621, 2238, 2405, 2024, 2065, 2402, 2414, 1635, 1650, 2244 ]. It counts as functional.
The target in experiment [13] is Cytochrome P450 2D6 (Homo sapiens, UniProt P10635). The experiment can be described thus: qHTS Assay for Inhibitors and Substrates of Cytochrome P450 2D6. [Related pubchem assays: 410 ]. Conditions: read-out: Potency. It counts as ADME.
The target in experiment [14] is Cytochrome P450 3A4 (Homo sapiens, UniProt P08684). To be noted: Potency.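 Note: confirmatory qHTS run detecting inhibitors and substrates of CYP3A4.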
Experiment [15] addresses T3, Bcl-2-related protein A1 (Mus musculus, UniProt Q07440).
T3 sequence (Q07440 whole entry): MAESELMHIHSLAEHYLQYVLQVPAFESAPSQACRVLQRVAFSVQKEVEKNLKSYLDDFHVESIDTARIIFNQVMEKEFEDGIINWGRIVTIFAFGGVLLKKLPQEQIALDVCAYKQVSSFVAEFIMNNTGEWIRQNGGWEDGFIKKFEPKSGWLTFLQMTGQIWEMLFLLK
Description: Bfl-1 binding inhibitors, SAR follow-up, biochemical, fluorescence polarization (AID 1070). In general terms: Fluorescence polarisation rises when a labelled molecule tumbles more slowly, as on binding a larger partner.

For experiment [16], the target named is Glyceraldehyde-3-phosphate dehydrogenase (Homo sapiens, UniProt P04406).
Experiment [17] addresses T3, Bcl-2-related protein A1. The experiment can be described thus: small-molecule antagonists of Bfl-1/BH3 interaction – biochemical, TR-FRET, mouse Bfl-1, confirmation (AID 621).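 Note: TR-FRET binding of GST-Bfl-1 to FITC-labelled Bid peptide via terbium antibody.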 For orientation: TR-FRET usually uses a lanthanide donor and a delayed reading to cut background.
Experiment [18] concerns the target Neuropeptide Y receptor type 2 (Homo sapiens, UniProt P49146). It counts as functional, cell-based.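 Note: HEK293 cells expressing the receptor and a CNG channel; stimulus was NPY near EC95 followed by isoproterenol to raise cAMP; antagonist potency measured as restoring cAMP signal that NPY suppresses.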
The target in experiment [19] is Neuropeptide Y receptor type 1 (Homo sapiens, UniProt P25929). It counts as functional.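 Note: HEK293 cells with a CNG channel challenged with NPY then isoproterenol; potency as antagonist that reverses NPY suppression of cAMP signal.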

One may read the EC50 as the midpoint of the concentration-response curve. Broadly, the IC50 is the concentration at which inhibition is half-maximal. As a reminder, the CC50 is the concentration at which the toxic effect on the cells reaches its halfway point.

Calls of active or inactive are those of the source. A value given as a limit tells only on which side of the number the result lay.

Serine/threonine-protein phosphatase PP1-alpha catalytic subunit, sequence (P62136 whole entry): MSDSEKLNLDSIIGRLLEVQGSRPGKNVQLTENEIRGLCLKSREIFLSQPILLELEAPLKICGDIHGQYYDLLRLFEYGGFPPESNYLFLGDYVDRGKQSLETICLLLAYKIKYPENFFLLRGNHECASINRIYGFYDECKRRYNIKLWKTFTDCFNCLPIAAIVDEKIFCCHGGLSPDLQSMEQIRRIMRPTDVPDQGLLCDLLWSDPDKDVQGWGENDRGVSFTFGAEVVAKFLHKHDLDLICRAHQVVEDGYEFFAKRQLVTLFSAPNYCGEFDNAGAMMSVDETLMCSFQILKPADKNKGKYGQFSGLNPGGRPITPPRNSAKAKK
Glyceraldehyde-3-phosphate dehydrogenase, sequence (P04406 whole entry): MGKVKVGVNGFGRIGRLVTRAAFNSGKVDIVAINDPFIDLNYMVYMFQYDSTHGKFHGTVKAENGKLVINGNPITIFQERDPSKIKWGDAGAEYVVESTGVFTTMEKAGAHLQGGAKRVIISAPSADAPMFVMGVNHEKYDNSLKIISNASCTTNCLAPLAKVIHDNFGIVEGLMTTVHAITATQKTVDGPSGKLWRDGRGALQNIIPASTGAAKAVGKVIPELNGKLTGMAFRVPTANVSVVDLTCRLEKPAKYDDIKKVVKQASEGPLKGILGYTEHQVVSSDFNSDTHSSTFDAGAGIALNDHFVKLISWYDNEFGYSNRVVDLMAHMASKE
Serine/threonine-protein phosphatase, sequence (Q9BPW0 whole entry): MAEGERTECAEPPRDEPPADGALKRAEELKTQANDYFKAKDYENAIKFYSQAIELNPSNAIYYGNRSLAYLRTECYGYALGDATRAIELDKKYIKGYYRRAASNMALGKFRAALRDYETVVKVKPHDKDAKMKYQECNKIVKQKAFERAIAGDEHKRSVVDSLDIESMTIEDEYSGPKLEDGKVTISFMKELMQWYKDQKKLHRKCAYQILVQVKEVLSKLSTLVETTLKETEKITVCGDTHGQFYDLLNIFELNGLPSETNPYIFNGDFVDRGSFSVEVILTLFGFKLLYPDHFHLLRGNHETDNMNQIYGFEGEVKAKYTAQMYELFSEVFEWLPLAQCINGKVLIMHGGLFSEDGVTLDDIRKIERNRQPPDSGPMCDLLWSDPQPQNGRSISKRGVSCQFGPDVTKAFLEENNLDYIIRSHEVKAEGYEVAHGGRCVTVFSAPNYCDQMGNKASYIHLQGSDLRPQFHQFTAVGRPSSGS
Neuropeptide Y receptor type 1, sequence (P25929 whole entry): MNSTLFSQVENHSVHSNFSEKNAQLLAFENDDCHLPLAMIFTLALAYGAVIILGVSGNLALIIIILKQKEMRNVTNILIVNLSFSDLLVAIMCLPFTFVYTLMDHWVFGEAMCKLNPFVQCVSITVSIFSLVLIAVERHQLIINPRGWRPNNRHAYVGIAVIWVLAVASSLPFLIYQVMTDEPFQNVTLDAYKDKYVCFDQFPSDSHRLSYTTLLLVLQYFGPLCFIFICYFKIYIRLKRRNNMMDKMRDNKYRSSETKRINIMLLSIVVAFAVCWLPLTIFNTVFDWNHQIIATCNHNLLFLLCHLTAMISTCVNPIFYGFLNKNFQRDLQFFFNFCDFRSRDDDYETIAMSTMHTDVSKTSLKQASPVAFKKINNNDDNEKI
Cytochrome P450 2D6, sequence (P10635 whole entry): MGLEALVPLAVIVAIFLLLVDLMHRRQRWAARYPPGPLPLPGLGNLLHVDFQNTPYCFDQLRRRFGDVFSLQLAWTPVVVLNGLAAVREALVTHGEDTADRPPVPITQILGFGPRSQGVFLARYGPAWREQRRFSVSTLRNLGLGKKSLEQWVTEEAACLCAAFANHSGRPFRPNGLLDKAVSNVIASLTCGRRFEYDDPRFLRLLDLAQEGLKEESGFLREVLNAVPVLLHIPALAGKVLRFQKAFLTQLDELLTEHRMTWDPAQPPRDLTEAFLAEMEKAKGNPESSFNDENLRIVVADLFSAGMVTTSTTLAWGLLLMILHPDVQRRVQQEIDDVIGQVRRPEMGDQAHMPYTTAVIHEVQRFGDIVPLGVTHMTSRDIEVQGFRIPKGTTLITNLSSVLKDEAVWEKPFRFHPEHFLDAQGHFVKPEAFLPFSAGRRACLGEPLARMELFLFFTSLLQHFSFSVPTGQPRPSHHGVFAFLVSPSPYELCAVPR
Neuropeptide Y receptor type 2, sequence (P49146 whole entry): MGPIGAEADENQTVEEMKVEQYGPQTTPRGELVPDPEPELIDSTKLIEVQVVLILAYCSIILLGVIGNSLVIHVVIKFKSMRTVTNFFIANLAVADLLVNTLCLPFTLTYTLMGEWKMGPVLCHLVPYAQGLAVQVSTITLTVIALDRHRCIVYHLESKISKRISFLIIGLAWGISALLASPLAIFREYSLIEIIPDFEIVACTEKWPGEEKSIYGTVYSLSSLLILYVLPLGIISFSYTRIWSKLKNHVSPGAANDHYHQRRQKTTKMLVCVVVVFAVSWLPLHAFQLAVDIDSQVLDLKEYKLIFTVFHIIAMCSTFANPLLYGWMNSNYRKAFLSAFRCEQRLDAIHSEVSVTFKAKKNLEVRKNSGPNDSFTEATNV
Cytochrome P450 3A4, sequence (P08684 whole entry): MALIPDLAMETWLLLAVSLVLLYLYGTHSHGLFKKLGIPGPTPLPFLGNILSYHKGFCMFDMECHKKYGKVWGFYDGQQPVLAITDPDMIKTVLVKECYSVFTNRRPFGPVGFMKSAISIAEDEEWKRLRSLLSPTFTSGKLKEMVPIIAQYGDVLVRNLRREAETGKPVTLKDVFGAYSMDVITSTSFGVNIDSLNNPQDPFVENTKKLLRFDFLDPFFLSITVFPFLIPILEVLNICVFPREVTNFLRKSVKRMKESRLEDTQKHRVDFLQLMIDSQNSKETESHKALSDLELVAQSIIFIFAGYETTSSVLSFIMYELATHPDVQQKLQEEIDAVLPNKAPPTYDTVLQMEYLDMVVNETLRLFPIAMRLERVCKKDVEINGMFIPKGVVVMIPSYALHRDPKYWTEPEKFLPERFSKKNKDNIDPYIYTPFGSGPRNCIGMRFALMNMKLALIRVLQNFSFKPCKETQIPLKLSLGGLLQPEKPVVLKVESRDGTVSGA

Take `COc1cnc(-c2ccccn2)nc1Sc1ccc(Cl)cc1`: the half-maximal effective concentration (EC50) in experiment [1] is > 150 µM (not active); in experiment [2] it was 15.3 µM (active); in experiment [3], 9.35 µM (active); in experiment [4], 21.6 µM (active); in [6] it was 18.6 µM (active). The results for the IC50 in experiment [5] and in experiment [7] were 6.47 µM (active) and > 67 µM (not active), respectively.
Consider `Cn1cc(Cl)c(C(=O)NNC(=S)NC2CCCCC2)n1`, for which, in [8], the EC50 was 41 µM (active).
`COc1cccc(C(NC(=O)c2ccccc2)c2ccc3cccnc3c2O)c1` (centres undefined): the 50% cytotoxic concentration (CC50) in experiment [9] is 2.2 µM (active); in experiment [10] it was 1.94 µM (active); in experiment [11], 6.07 µM (active). The IC50 in experiment [12] was 5.63 µM (active).
On to `Cc1nc(/N=N\c2ccc(C(=O)O)cc2)c(COP(=O)(O)O)c(C=O)c1O`, for which the AC50 in [13] is 39.8 µM (inconclusive); in experiment [14] it was 10 µM (inconclusive).
For the molecule `O=C1C(Cl)=C(N2CCOCC2)C(=O)N1c1cccc(Cl)c1Cl`, the results for the IC50 in experiment [15], in experiment [16] and in [17] were 4.05 µM (active), > 10 µM (inconclusive) and 1.52 µM (active), respectively.
As to `COc1ccccc1OCCCCN1CCN(C(c2ccccc2)c2ccccc2)CC1`, the IC50 in experiment [18] and in experiment [19] was > 35 µM (not active) in each case.
